Test results reported in paper PMC10059083, “Design, Synthesis, and Biological Evaluation of Novel Hydroxamic Acid-Based Organoselenium Hybrids” (Pharmaceuticals, 2023).
In brackets after ≈: the same amount, converted by molar mass. Read-outs that look alike come from different tables or passages of the source.

Key:
[1] = DPPH radical scavenging assay; details: for antioxidant (scavenging) activity in the DPPH assay: compounds 200 µL, 1 mM in MeOH, DPPH 400 µL, 30 min, absorbance at 517 nm
Protocol: (§1) The antioxidant activities of the OSe compounds were intensively investigated because these are usually the cause of their chemopreventive potency. Their redox activities were evaluated via DPPH and ABTS assays, using ascorbic acid as the standard. We spectrophotometrically measured the antioxidant efficiency of the OSe compounds by their ability to decolorise the DPPH^. and ABTS^. radicals at […] (Figure 2).
(§2) The compounds’ antioxidant properties were assessed by in vitro bioassays using DPPH and ABTS, following the reported method. Details are in the Supplementary Materials.
(§3) Figure 4 Estimation of the OSe compounds’ redox activities via DPPH and ABTS experiments. All tests are mean ± S.D. ABTS experiment: absorbance was followed at 734 nm for OSe compounds (50 µL, 1 mM in MeOH) and ABTS solution (60 µL). DPPH Absorbance was monitored at 517 nm for OSe compounds (200 µL, 1 mM in MeOH) and DPPH (400 µL) after 30 min. […]
1.1.3. The antioxidant activity
1.1.3.1. The DPPH bioassay
The hydrogen atom or electron donation ability of the corresponding compounds was measured by estimating the bleaching of the purple color of a methanolic solution of DPPH [5]. This spectrophotometric assay uses stable DPPH. reagent. The sample was prepared by adding […] of the OSe compounds (1 mM in methanol) to […] DPPH in methanol. After 30 min of incubation in the dark, the absorbance was read against a blank at […]. Ascorbic acid (vitamin C) and ebselen were used as standard antioxidants (positive control). A blank sample was run without DPPH. A negative control sample was run using methanol instead of the sample. The radical scavenging activity was calculated using the following equation:
Inhibition%= (Ablank-Asample)/(Ablank)*100. […]

[2] = ABTS radical scavenging assay; details: for antioxidant (scavenging) activity in the ABTS assay: compounds 50 µL, 1 mM in MeOH, ABTS solution 60 µL, absorbance at 734 nm
Protocol: as §1, §2, §3
1.1.3.2. The ABTS bioassay
The antioxidant activity of the investigated compounds was assessed using 2,2’-azino-bis(3-ethylbenzothiazoline-6-sulphonic acid (ABTS) method. The radical cation derived from ABTS was prepared by the reaction of 60 mM ABTS solution with 0.3 M manganese dioxide solution in 0.1M phosphate buffer, pH 7. Then, the mixture was shaken, centrifuged, filtered, and the absorbance (Acontrol ) of […]
the resulting green-blue solution (ABTS radical solution) was measured at wavelength 734 nm. Then, […] of 1 mg/ml test compound in phosphate-buffered methanol was added. The absorbance (Atest) was measured. The reduction in color intensity was expressed as % inhibition. The % inhibition for each […]
compound is calculated from the following equation
Inhibition% = (Acontrol-Asample)/(Acontrol)*100
Ascorbic acid (vitamin C) was used as a standard antioxidant (positive control). A blank sample was run […]
without ABTS and using MeOH/phosphate buffer (1:1) instead of the sample. A negative control sample […]
was run with MeOH/phosphate buffer (1:1) instead of a tested compound.

C. albicans [3] = assay: Agar diffusion assay, C. albicans; type: cell-based, Candida albicans; details: for zone of inhibition at 20 µM: Candida albicans, read-out: C. albicans ZID (inhibition zone diameter); for C. albicans IA% (activity index): ratio of inhibition zone of compound to that of positive control (clotrimazole)
C. albicans [4] = assay: MIC by microdilution, C. albicans; type: cell-based; details: Candida albicans; microdilution method; read-out: MIC C. albicans
Text: (§4) The encouraging antitumor properties of the OSe compounds motivated us to evaluate their corresponding antimicrobial activities against the C. albicans fungal strain, S. aureus Gram-positive bacteria, and E. coli Gram-negative bacteria. Therefore, we applied the agar diffusion and minimum inhibitory concentration (MIC) methods using clotrimazole antifungal and ampicillin antibacterial drugs as standards.
(§5) The products’ antimicrobial properties were examined according to the previously reported method, via agar well diffusion assay against E. coli, S. aureus, and C. albicans. A microdilution method was also used to record MICs (M), following the previously reported procedure. Experimental details can be found in the Supplementary Materials.
Briefly, a concentration of 1 mM was prepared for each compound by dissolving in DMSO. Paper discs of standard size […] were sterilized in an autoclave and soaked in 9 µL of the test compounds, and placed in the Petri dishes, which in turn contain a nutrient media (agar 9 g, peptone 5 g, and beef extract 3 g) seeded with the dedicated strain. Incubation lasted for 13 h at 36 0C. […]

HepG2 cells = assay: MTT antiproliferative assay, HepG2 cells; type: cell-based; details: for IC50: Homo sapiens, HepG2, 24 h, read-out: HepG2 IC50; for HepG2 TI (therapeutic index): ratio of IC50 against WI38 cells to IC50 against HepG2 cells
Text: (§6) Recently, OSe agents have attracted interest due to their potential chemoprotective and antitumor properties. We have developed several OSe compounds with promising antioxidant, antimicrobial, and antitumor properties. Therefore, we estimated the OSe agents’ antiproliferative activities against different cancer cells, i.e., MCF-7 and HepG2 cells and healthy lung fibroblast WI-38 cells, using the MTT assay. The drug doxorubicin was employed as the standard. The corresponding therapeutic indices (TI) are described as the proportion of the WI38 cells IC50 to the IC50 of the cancer cell (e.g., MCF-7 and HepG2) (Table 1).
(§7) The products’ anticancer activity was examined using the MTT assay against breast (MCF-7) carcinoma cells, liver (HepG2), and normal WI-38 cells, following the previously reported method. Experimental details can be found in the Supplementary Materials.
(§8) 1.1. The biological assays
(§9) 1.1.1. The anticancer activity
(§10) The breast adenocarcinoma (MCF-7), Hepatocellular carcinoma (HEPG-2), and normal fibroblast (WI-38) cells were obtained from ATCC via Holding company for biological products and vaccines (VACSERA), Cairo, Egypt. The reagents […] medium, MTT, DMSO, and fetal bovine serum was obtained from Sigma Aldrich. Dulbecco’s modified Eagle’s medium was used as the culture medium for the cells, and the cytotoxicity was evaluated using the reported MTT assay. Doxorubicin was used as the positive reference, and the IC50 values were obtained from the corresponding dose-response curve.
(§11) This colorimetric assay is based on converting the yellow tetrazolium bromide (MTT) to a purple formazan derivative by mitochondrial succinate dehydrogenase in viable cells. Cell lines were cultured in […] medium with 10% fetal bovine serum. Antibiotics added were 100 units/ml penicillin and 100µg/ml streptomycin at 37 C in a 5% Co2 incubator. The cell lines were seeded in a 96-well plate at a density of 1.0x10^4 cells/well. at 37 C for 48 h under 5% Co2. After incubation, the cells were treated with different concentrations of compounds and incubated for 13 […]
Finally, dimethyl sulfoxide (DMSO) in the volume of 100 µl is added to each well to dissolve the purple formazan formed. The colorimetric assay is measured and recorded at an absorbance of 570 nm using a plate reader (EXL 800, USA). The percentage of the relative cell viability was calculated as (A570 of treated samples/A570 of the untreated sample) X 100. […]

WI-38 cells = assay: MTT cytotoxicity assay, normal lung fibroblast WI-38 cells; type: cell-based; details: Homo sapiens, WI-38, 24 h, read-out: WI38 IC50
Text: as §6, with “We have developed several OSe compounds with promising antioxidant, antimicrobial, and antitumor properties.” left out
as §7, §8, §9, §10, §11
(§12) Finally, dimethyl sulfoxide (DMSO) in the volume of 100 µl is added to each well to dissolve the purple formazan formed. The colorimetric assay is measured and recorded at an absorbance of 570 […]
(§13) The percentage of the relative cell viability was calculated as (A570 of treated samples/A570 of the untreated sample) X 100. […]

MCF-7 cells = assay: MTT antiproliferative assay, MCF-7 cells; type: cell-based; details: for IC50: Homo sapiens, MCF7, 24 h, read-out: MCF7 IC50; for MCF7 TI (therapeutic index): ratio of IC50 against WI38 cells to IC50 against MCF-7 cells
Text: as §6, with “We have developed several OSe compounds with promising antioxidant, antimicrobial, and antitumor properties.” left out
as §7, §8, §9, §10, §11, §12, §13

S. aureus [5] = assay: Agar diffusion assay, S. aureus; type: cell-based; details: Staphylococcus aureus; 6-mm disks soaked with 20 μM of the OSe agents; read-out: S. aureus ZID (inhibition zone diameter)
S. aureus [6] = assay: Agar diffusion assay, S. aureus; type: cell-based, Staphylococcus aureus; parameters: concentration or dose not given beside the values; details: ratio of inhibition zone of compound to that of positive control (ampicillin)
Text: as §4
as §5, with “Materials. […]” for “Materials.”
1.1.2. The antimicrobial activity
The antimicrobial activities of the OSe compounds were evaluate d against C. albicans yeast as well as E. coli gram-negative and S. aureus gram-positive bacteria employing the agar well diffusion assay.
Briefly, a concentration of 1 mM was prepared for each compound by dissolving in DMSO. Paper discs of standard size […] were sterilized in an autoclave and soaked in 9 µL of the test compounds, and placed in the Petri dishes, which in turn contain a nutrient media (agar 9 g, peptone 5 g, and beef extract 3 g) seeded with the dedicated strain. Incubation lasted for 13 h at 36 0C.
Experiments were replicated three times and the antifungal clotrimazole and antibiotic ampicillin […]

IC50 ([1]; concentration causing 50% decrease in absorbance, DPPH assay) [µM] | IC50 ([2]; concentration causing 50% decrease in absorbance, ABTS assay) [µM] | MIC (C. albicans [4]) [µM] | SMILES | antioxidant (scavenging) activity in the DPPH assay [1] [%] | antioxidant (scavenging) activity in the ABTS assay [2] [%] | zone of inhibition at 20 µM (C. albicans [3]; 6-mm disks soaked with 20 μM of the OSe agents) [mm] | C. albicans IA% (activity index) (C. albicans [3]) [%] | IC50 (HepG2 cells) [µM] | HepG2 TI (therapeutic index) (HepG2 cells) | IC50 (WI-38 cells) [µM] | IC50 (MCF-7 cells) [µM] | MCF7 TI (therapeutic index) (MCF-7 cells) | zone of inhibition at 20 µM (C. albicans [3]) [mm] | zone of inhibition at 20 µM (S. aureus [5]) [mm] | S. aureus IA% (activity index) (S. aureus [6]) [%]
19.18 ± 0.13 | 28.16 ± 0.19 |  | O=C1O[C@H]([C@@H](O)CO)C(O)=C1O [Vitamin C, ascorbic acid, reference compound] | 94.5 | 88.4 |  |  |  |  |  |  |  |  |  | 
 |  | 2 (≈ 0.69 µg/mL) | Clc1ccccc1C(c1ccccc1)(c1ccccc1)n1ccnc1 [Clotrimazole, clotrimazole, reference compound] |  |  | 24 | 100 |  |  |  |  |  |  |  | 
 |  |  | O=C(C[Se]c1ccc(N2C(=O)c3ccccc3C2=O)cc1)NOCc1ccccc1 [Compound 13, N-(benzyloxy)-2-((4-(1,3-dioxoisoindolin-2-yl)phenyl)selanyl)acetamide] | 89.4 | 87.0 |  | 8.3 | > 100 | 0.6 | 61.6 ± 3.8 | 91.6 ± 4.6 | 0.8 | 2 |  | 
 |  |  | O=CNc1ccc([Se]CC(=O)NOCc2ccccc2)cc1 [Compound 10, N-(benzyloxy)-2-((4-formamidophenyl)selanyl)acetamide] | 64.2 | 64.7 |  | 29.2 | 83.4 ± 4.2 | 0.5 | 37.4 ± 2.6 | 49.3 ± 3.1 | 0.8 | 7 | 6 | 28.6
